Test results reported in the NIST ThermoML archive (doi:10.1021/je401036f).

Assay: refractive index (Na D-line) (dimensionless); xn = mol fraction of the nth substance listed
Settings: 101 kPa, Liquid, Standard Abbe refractometry

CC(O)CN (stereo not given) [1-amino-2-propanol] + CCC(C)O
refractive index
Settings	288.15 K	293.15 K	298.15 K	303.15 K	308.15 K	313.15 K	318.15 K	323.15 K	328.15 K	333.15 K
x1 = 0.1003	1.4039	1.4018	1.3996	1.3974	1.3952	1.3929	1.3905	1.3881	1.3857	1.3832
x1 = 0.2005	1.4082	1.4062	1.404	1.4019	1.3996	1.3974	1.3951	1.3928	1.3905	1.3881
x1 = 0.3	1.4128	1.4107	1.4086	1.4065	1.4043	1.4021	1.3999	1.3977	1.3955	1.3932
x1 = 0.3999	1.4177	1.4156	1.4135	1.4114	1.4093	1.4071	1.4049	1.4028	1.4006	1.3983
x1 = 0.5	1.4228	1.4207	1.4186	1.4165	1.4144	1.4123	1.4102	1.408	1.4059	1.4036
x1 = 0.6001	1.428	1.4259	1.4239	1.4218	1.4197	1.4176	1.4154	1.4133	1.4112	1.409
x1 = 0.7	1.4332	1.4312	1.4292	1.4271	1.425	1.4229	1.4208	1.4187	1.4166	1.4144
x1 = 0.8	1.4386	1.4366	1.4345	1.4325	1.4304	1.4284	1.4263	1.4242	1.4221	1.42
x1 = 0.8999	1.4442	1.4422	1.4402	1.4382	1.4362	1.4342	1.4322	1.4302	1.4281	1.426
x1 = 1	1.45	1.448	1.446	1.444	1.4419	1.4399	1.4378	1.4358	1.4337	1.4315

CC(O)CN (stereo not given) [1-amino-2-propanol] + CCCCO
refractive index
Settings	288.15 K	293.15 K	298.15 K	303.15 K	308.15 K	313.15 K	318.15 K	323.15 K	328.15 K	333.15 K
x1 = 0.1	1.4058	1.4038	1.4018	1.3998	1.3977	1.3956	1.3934	1.3913	1.3892	1.387
x1 = 0.2005	1.4104	1.4084	1.4064	1.4043	1.4022	1.4001	1.398	1.3958	1.3937	1.3915
x1 = 0.3	1.4151	1.413	1.411	1.4089	1.4068	1.4047	1.4026	1.4005	1.3983	1.3961
x1 = 0.3999	1.4198	1.4178	1.4157	1.4136	1.4115	1.4094	1.4073	1.4051	1.403	1.4008
x1 = 0.5	1.4246	1.4226	1.4205	1.4184	1.4163	1.4142	1.4121	1.4099	1.4078	1.4056
x1 = 0.6001	1.4295	1.4275	1.4254	1.4234	1.4213	1.4191	1.417	1.4149	1.4128	1.4106
x1 = 0.7	1.4345	1.4324	1.4304	1.4283	1.4262	1.4242	1.4221	1.42	1.4178	1.4156
x1 = 0.8	1.4395	1.4375	1.4354	1.4334	1.4313	1.4292	1.4272	1.425	1.4229	1.4208
x1 = 0.8997	1.4446	1.4426	1.4406	1.4385	1.4365	1.4344	1.4324	1.4303	1.4282	1.426
x1 = 1	1.45	1.448	1.446	1.444	1.4419	1.4399	1.4378	1.4358	1.4337	1.4315
